From patent US20110178104A1, “Anti-Heparin Compounds” (POLYMEDIX INC., priority 2010, published 2011)
Converted amounts (≈) assume the structure as drawn.

What was measured:
fondaparinux = assay: FXa amidolytic assay (Example 10), fondaparinux; conditions: for EC50: read-out: Fondap FXa EC50, fondaparinux 0.02 μg/mL, human antithrombin, bovine Factor Xa
Protocol: (§2) Two μl of test agent are added (range between 0.01 and 23 ug/ml) and incubated for 5 minutes at 23° C. Bovine Factor Xa was added to a final concentration of 0.636 nkat/mL and incubated for a further 10 minutes at 23° C.

[1] = Cytotoxicity colorimetric assay, HepG2; format: cell-based, human; design: Cytotoxicity HepG2, percent printed in parentheses after the concentration: concentration or dose not given beside the values; conditions: human, HepG2 cells, one hour in serum-free media
Protocol: (§1) This assay measures the bioreduction of a novel tetrazolium compound to a soluble formazan product by viable cells. HepG2 cells were seeded in 96 well plates at 3×10^4 cells/well in MEM medium with 10% fetal bovine serum (FBS) 24 hours prior to use. NIH/3T3 cells were seeded in 96 well plates at 2×10^4 cells/well in DMEM medium with 10% bovine calf serum (BCS) 24 hours prior to use. Cell monolayers were rinsed in serum-free media and incubated for one hour with test agent in serum-free media. After incubation, the media was replaced with serum supplemented media and live cells were measured using the Cell Titer 96 Aqueous […] Assay kit (Promega, Madison, Wis.). EC50 values were determined using a four parameter logistic equation: Y=Bottom+(Top-Bottom)/(1+10̂((LogEC50-X)*HillSlope)).

HepG2 cells = assay: Cytotoxicity colorimetric assay, HepG2; format: cell-based, human; design: Cytotoxicity HepG2, percent printed in parentheses after the concentration: concentration or dose not given beside the values; conditions: for Cytotoxicity HepG2, percent printed in parentheses after the concentration: at the concentration given
Protocol: as §1

enoxaparin [2] = assay: FXa amidolytic assay (Example 10), enoxaparin; conditions: read-out: Enox FXa EC50; enoxaparin 0.1 ug/ml; human antithrombin, bovine Factor Xa
Protocol: as §2

tinzaparin = assay: FXa amidolytic assay (Example 10), tinzaparin; conditions: read-out: Tinzap FXa EC50; tinzaparin 0.1 ug/ml; human antithrombin, bovine Factor Xa
Protocol: as §2

[3] = tested on: isolated human erythrocytes; assay: cells; format: cell-based; conditions: human RBC, 1 hour at 37° C.; for EC50: Homo sapiens, Erythrocyte, 1 h, read-out: Hemolysis EC50
Summary of the method: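 Test agent was serially diluted two-fold over 0.48–1000 µg/ml and incubated for 1 h at 37 °C with shaking, using erythrocytes from pooled human blood diluted in Tris-buffered saline pH 7.4 (0.22% stock). Hemolysis was measured as supernatant absorbance at 405 nm. A four-parameter logistic equation gave EC50, and melittin served as the positive control.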

Unfractionated heparin = assay: aPTT clotting assay, UFH 0.4 U/mL in plasma (Example 10); format: biochemical; conditions: unfractionated heparin 0.4 U/mL in plasma; aPTT clotting
Protocol: aPTT clotting Assay: Unfractionated heparin was mixed with plasma at a final concentration of 0.4 U/mL (or concentration which increases aPTT time to between 120 and 300 seconds). […] The ACL Elite Hemostasis analyzer (Beckman Coulter™) was used to add aPTT reagent (HemosIL SynthASil) to supplemented plasma. Clotting was initiated by addition of CaCl2 and time to clot was recorded.

UFH = assay: FXa amidolytic assay (Example 10), UFH; conditions: read-out: Heparin FXa uM EC50; UFH 0.03 units/mL; human antithrombin, bovine Factor Xa
Protocol: as §2

NIH/3T3 cells = assay: Cytotoxicity colorimetric assay, NIH/3T3; format: cell-based, mouse
Protocol: as §1

[4] = Cytotoxicity colorimetric assay, NIH/3T3; format: cell-based, mouse; conditions: mouse, NIH/3T3 cells, one hour in serum-free media
Protocol: as §1

enoxaparin [5] = assay: In vivo neutralization of enoxaparin in the rat; conditions: compared with protamine
Protocol: Compounds were tested for their ability to neutralize enoxaparin coagulation inhibition in rats. Male Sprague-Dawley rats were used in this study (Charles River Laboratories). They were ten-weeks-old at the start of the study and their weights ranged from 319-362 g. Enoxaparin (2 mg/kg) was administered by IV injection to groups of six rats. After 3 min, saline, protamine or a test compound was administered by IV injection. Blood was collected before dosing with enoxaparin, and at 1, 3, 10, 30 and 60 min after dosing with the standard and test compounds. All treatments were dosed in a volume of 1 mL/kg. Blood was collected via the orbital sinus from three rats per group. At each time point, 1 mL of blood was collected from each animal into a single tube. The blood was analyzed using an AMEX Destiny Plus Coagulation Analyzer for activated partial thromboplastin time (APTT) and anti-Factor Xa (low-molecular weight).

Compound | EC50 (fondaparinux) | EC50 at 1 h [1] | Cytotoxicity HepG2, percent printed in parentheses after the concentration (HepG2 cells) | EC50 (enoxaparin [2]) | EC50 (tinzaparin) | EC50 [3] | EC50 (Unfractionated heparin) | EC50 (UFH) | Cytotoxicity 3T3, percent printed in parentheses after the concentration (NIH/3T3 cells; at the concentration given) | EC50 at 1 h [4] | Hemolysis EC50 [3] | Potent LMWH-antagonists with superior anti-fondaparinux activity (summary) (fondaparinux) | in vivo efficacy versus LMWH by anti-factor Xa activity (summary) (enoxaparin [5]) | Cytotoxicity HepG2 EC50 (HepG2 cells; one hour in serum-free media) | Cytotoxicity 3T3 EC50 (NIH/3T3 cells; one hour in serum-free media)
COc1ccc(NC(=O)[C@@H](CCCNC(=N)N)NC(=O)c2cc(NC(=O)[C@@H](CCCNC(=N)N)NC(=O)c3cc(NC(=O)[C@@H](CCCNC(=N)N)NC(=O)c4cc(NC(=O)[C@H](N)CCCNC(=N)N)ccc4OC)ccc3OC)ccc2OCC(=O)O)cc1C(N)=O [Compound 281] | 441 nM | 1000 µg/mL (≈ 780 µM) | 50% | 129 nM | 111 nM | > 1000 µg/mL | 1810 nM | 0.108 µM | – | – | – | – | – | – | –
COc1ccc(NC(=O)[C@H](CCCNC(=N)N)NC(=O)c2cc(NC(=O)[C@H](CCCNC(=N)N)NC(=O)c3cc(NC(=O)[C@H](CCCNC(=N)N)NC(=O)c4cc(NC(=O)[C@@H](N)CCCNC(=N)N)ccc4OC)ccc3OC)ccc2OCC(=O)O)cc1C(N)=O [Compound 287] | 402 nM | 1000 µg/mL (≈ 780 µM) | 30% | 114 nM | 108 nM | – | 1980 nM | – | 50% | 1000 µg/mL (≈ 780 µM) | no significant decrease | – | – | – | –
COc1ccc(NC(=O)[C@@H](CCCNC(=N)N)NC(=O)c2cc(NC(=O)[C@@H](CCCNC(=N)N)NC(=O)c3cc(NC(=O)[C@@H](CCCNC(=N)N)NC(=O)c4cc(NC(C)=O)ccc4OC)ccc3OC)ccc2OC)cc1C(=O)N[C@H](Cc1ccc(O)cc1)C(=O)O [Compound 297] | 225 nM | 300 µg/mL (≈ 233 µM) | 60% | 293 nM | 318 nM | > 1000 µg/mL | 7120 nM | 0.215 µM | – | – | – | – | – | – | –
COc1ccc(NC(=O)[C@H](CCCCN)NC(=O)c2cc(NC(=O)[C@H](CCCCN)NC(=O)c3cc(NC(=O)[C@H](CCCCN)NC(=O)c4cc(NC(=O)[C@@H](N)CCCCN)ccc4OC)ccc3OC)ccc2OCC(=O)O)cc1C(=O)N[C@@H](Cc1c[nH]c2ccccc12)C(N)=O [Compound 348] | 263 nM | > 1000 µg/mL | – | 120 nM | 67 nM | > 1000 µg/mL | 2400 nM | 0.153 µM | – | > 1000 µg/mL | – | superior anti-fondaparinux activity | superior to protamine | – | –
COc1cc(OC)c(C(=O)N[C@H]2CC[C@@H](NC(=O)c3cc(C(=O)NCCN(C)C)c(OCCCCCN)cc3OCCCCCN)CC2)cc1C(=O)N[C@H]1CC[C@@H](NC(=O)c2cc(C(=O)NCCN(C)C)c(OCCCCCN)cc2OCCCCCN)CC1 [Compound 363] | 1060 nM | > 1000 µg/mL | – | 67 nM | 113 nM | > 1000 µg/mL | 1030 nM | 0.134 µM | – | 500 µg/mL (≈ 397 µM) | – | superior anti-fondaparinux activity | superior to protamine | – | –
COc1cc(OC)c(C(=O)N[C@H]2CC[C@@H](NC(=O)c3ccc(OCCCCCN)cc3OCCCCCN)CC2)cc1C(=O)N[C@H]1CC[C@@H](NC(=O)c2ccc(OCCCCCN)cc2OCCCCCN)CC1 [Compound 369] | 3860 nM | 280 µg/mL (≈ 271 µM) | – | 143 nM | 176 nM | > 1000 µg/mL | 350 nM | 0.411 µM | – | 100 µg/mL (≈ 97 µM) | – | – | superior to protamine | – | –
protamine sulfate [reference compound] | – | – | – | – | – | – | – | – | – | – | >1000 µg/mL | – | – | >1000 µg/mL | >1000 µg/mL
